In the supplement of paper PMC10307832 one finds relative viability data, which are given here for seven cell lines.

Common to all, as to test: relative viability (nuclei count vs DMSO), 5 days (fraction); higher = more cells survive
Compound in assay [1]: C=CCNC1=C2C[C@@H](C)C[C@H](OC)[C@H](O)[C@@H](C)/C=C(\C)[C@H](OC(N)=O)[C@@H](OC)/C=C\C=C(/C)C(=O)NC(=CC1=O)C2=O [17-AAG] + O=C(CCCCCCC(=O)Nc1ccccc1)NO [Vorinostat] (partner 1 µM)
The method in brief: (§1)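 One day after seeding in 1536-well plates, lung cancer cell lines were dosed by pin tool. Dosing was either single-drug or a fixed anchor-drug dose plus five library-drug doses (not always all listed) in √10 steps. After 5 days, nuclei were stained in one fix-and-stain step and counted on 4× images, and relative viability is the nuclei count of treated wells over that of vehicle wells, given as the median of duplicate plates.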

Compound in assay [2]: C=CCNC1=C2C[C@@H](C)C[C@H](OC)[C@H](O)[C@@H](C)/C=C(\C)[C@H](OC(N)=O)[C@@H](OC)/C=C\C=C(/C)C(=O)NC(=CC1=O)C2=O [17-AAG] + NC(=O)Nc1cc(-c2cccc(F)c2)sc1C(=O)N[C@H]1CCCNC1 [AZD7762] (partner 0.2 µM)
The gist of the method: as §1

Compound in assay [3]: C=CCNC1=C2C[C@@H](C)C[C@H](OC)[C@H](O)[C@@H](C)/C=C(\C)[C@H](OC(N)=O)[C@@H](OC)/C=C\C=C(/C)C(=O)NC(=CC1=O)C2=O [17-AAG] + COc1cc2c(Oc3ccc(NC(=O)C4(C(=O)Nc5ccc(F)cc5)CC4)cc3F)ccnc2cc1OCCCN1CCOCC1 [Foretinib] (partner 0.25 µM)
The method in brief:
as §1

Compound in assay [4]: C=CCNC1=C2C[C@@H](C)C[C@H](OC)[C@H](O)[C@@H](C)/C=C(\C)[C@H](OC(N)=O)[C@@H](OC)/C=C\C=C(/C)C(=O)NC(=CC1=O)C2=O [17-AAG] + CS(=O)(=O)N1CCN(Cc2cc3nc(-c4cccc5[nH]ncc45)nc(N4CCOCC4)c3s2)CC1 [Pictilisib] (partner 1 µM)
The method in brief:
as §1

With NCI-H1915, the relative viability in assay [1] (first compound 0.00128 µM) was 0.447; in assay [1] (first compound 0.004048 µM), 0.465; in assay [1] (first compound 0.0128 µM), 0.45; in assay [1] (first compound 0.04048 µM), 0.167; in assay [1] (first compound 0.128 µM), 0.0637; in assay [2] (first compound 0.00128 µM), 0.587. The relative viability in assay [2] (first compound 0.004048 µM) turned out to be 0.719; in assay [2] (first compound 0.0128 µM), 0.219; in assay [2] (first compound 0.04048 µM), 0.12; in assay [2] (first compound 0.128 µM), 0.0582; in assay [3] (first compound 0.00128 µM), 1.09; in assay [3] (first compound 0.004048 µM), 1.06. Moreover, the relative viability in assay [3] (first compound 0.0128 µM) turned out to be 1.12; in assay [3] (first compound 0.04048 µM), 1.06; in assay [3] (first compound 0.128 µM), 0.271; in assay [4] (first compound 0.00128 µM), 0.848; in assay [4] (first compound 0.004048 µM) it was 0.992; in assay [4] (first compound 0.0128 µM), 0.832. In addition, the relative viability turned out to be 0.207 in assay [4] (first compound 0.04048 µM) and 0.0693 in assay [4] (first compound 0.128 µM).
In the case of LOU-NH91, the relative viability in assay [1] (first compound 0.00128 µM) came out at 0.86; in assay [1] (first compound 0.004048 µM), 0.735; in assay [1] (first compound 0.0128 µM) it was 0.547; in assay [1] (first compound 0.04048 µM) it was 0.482; in assay [1] (first compound 0.128 µM), 0.336; in assay [2] (first compound 0.00128 µM), 0.765. The relative viability was 0.71 in assay [2] (first compound 0.004048 µM); 0.444 in assay [2] (first compound 0.0128 µM); 0.382 in assay [2] (first compound 0.04048 µM); 0.347 in assay [2] (first compound 0.128 µM); 0.868 in assay [3] (first compound 0.00128 µM); 0.727 in assay [3] (first compound 0.004048 µM). In addition, the relative viability was 0.633 in assay [3] (first compound 0.0128 µM); 0.36 in assay [3] (first compound 0.04048 µM); 0.279 in assay [3] (first compound 0.128 µM); 0.573 in assay [4] (first compound 0.00128 µM); 0.515 in assay [4] (first compound 0.004048 µM); 0.451 in assay [4] (first compound 0.0128 µM). Moreover, the results for the relative viability in assay [4] (first compound 0.04048 µM) and in assay [4] (first compound 0.128 µM) were 0.384 and 0.332, respectively.
NCI-H2405: the relative viability in assay [1] (first compound 0.00128 µM) worked out at 1.08; in assay [1] (first compound 0.004048 µM) it was 0.994; in assay [1] (first compound 0.0128 µM) it was 0.391; in assay [1] (first compound 0.04048 µM), 0.209; in assay [1] (first compound 0.128 µM), 0.193; in assay [2] (first compound 0.00128 µM), 0.741. The relative viability is 0.525 in assay [2] (first compound 0.004048 µM); 0.23 in assay [2] (first compound 0.0128 µM); 0.153 in assay [2] (first compound 0.04048 µM); 0.143 in assay [2] (first compound 0.128 µM); 1.1 in assay [3] (first compound 0.00128 µM); 1.04 in assay [3] (first compound 0.004048 µM). The relative viability in assay [3] (first compound 0.0128 µM) turned out to be 0.93; in assay [3] (first compound 0.04048 µM), 0.245; in assay [3] (first compound 0.128 µM) it was 0.195; in assay [4] (first compound 0.00128 µM) it was 0.521; in assay [4] (first compound 0.004048 µM), 0.248; in assay [4] (first compound 0.0128 µM), 0.175. Also, the relative viability is 0.179 in assay [4] (first compound 0.04048 µM) and 0.164 in assay [4] (first compound 0.128 µM).
NCI-H2126: the relative viability was found to be 0.865 in assay [1] (first compound 0.00128 µM); 0.933 in assay [1] (first compound 0.004048 µM); 0.782 in assay [1] (first compound 0.0128 µM); 0.199 in assay [1] (first compound 0.04048 µM); 0.227 in assay [1] (first compound 0.128 µM); 0.977 in assay [2] (first compound 0.00128 µM). In addition, the relative viability in assay [2] (first compound 0.004048 µM) came to 0.975; in assay [2] (first compound 0.0128 µM) it was 0.885; in assay [2] (first compound 0.04048 µM) it was 0.265; in assay [2] (first compound 0.128 µM), 0.231; in assay [3] (first compound 0.00128 µM), 1.29; in assay [3] (first compound 0.004048 µM), 1.19. The relative viability in assay [3] (first compound 0.0128 µM) was 1.05; in assay [3] (first compound 0.04048 µM), 0.908; in assay [3] (first compound 0.128 µM), 0.236; in assay [4] (first compound 0.00128 µM), 0.509; in assay [4] (first compound 0.004048 µM), 0.533; in assay [4] (first compound 0.0128 µM), 0.492. Also, the relative viability in assay [4] (first compound 0.04048 µM) was determined as 0.316; in assay [4] (first compound 0.128 µM) it was 0.284.
For the cell line HCC-827, the relative viability in assay [1] (first compound 0.00128 µM) amounted to 0.963; in assay [1] (first compound 0.004048 µM), 0.864; in assay [1] (first compound 0.0128 µM), 0.833; in assay [1] (first compound 0.128 µM) it was 0.863; in assay [2] (first compound 0.00128 µM) it was 0.216; in assay [2] (first compound 0.004048 µM), 0.238. The relative viability amounted to 0.163 in assay [2] (first compound 0.0128 µM); 0.164 in assay [2] (first compound 0.128 µM); 1.06 in assay [3] (first compound 0.00128 µM); 0.978 in assay [3] (first compound 0.004048 µM); 1.03 in assay [3] (first compound 0.0128 µM); 0.727 in assay [3] (first compound 0.128 µM). Besides, the relative viability in assay [4] (first compound 0.00128 µM) was 1.21; in assay [4] (first compound 0.004048 µM), 1.03; in assay [4] (first compound 0.0128 µM), 0.923; in assay [4] (first compound 0.128 µM), 1.02.
As to NCI-H322M, the relative viability in assay [1] (first compound 0.00128 µM) worked out at 0.987; in assay [1] (first compound 0.004048 µM) it was 1.15; in assay [1] (first compound 0.0128 µM) it was 0.569; in assay [1] (first compound 0.04048 µM) it was 0.383; in assay [1] (first compound 0.128 µM), 0.482; in assay [2] (first compound 0.00128 µM), 0.633. Further, the relative viability came to 0.415 in assay [2] (first compound 0.004048 µM); 0.405 in assay [2] (first compound 0.0128 µM); 0.382 in assay [2] (first compound 0.04048 µM); 0.413 in assay [2] (first compound 0.128 µM); 0.971 in assay [3] (first compound 0.00128 µM); 1.04 in assay [3] (first compound 0.004048 µM). Moreover, the relative viability was 0.577 in assay [3] (first compound 0.0128 µM); 0.306 in assay [3] (first compound 0.04048 µM); 0.323 in assay [3] (first compound 0.128 µM); 0.553 in assay [4] (first compound 0.00128 µM); 0.564 in assay [4] (first compound 0.004048 µM); 0.523 in assay [4] (first compound 0.0128 µM). In addition, the results for the relative viability in assay [4] (first compound 0.04048 µM) and in assay [4] (first compound 0.128 µM) were 0.259 and 0.279, respectively.
Consider HOP-62, for which the relative viability in assay [1] (first compound 0.00128 µM) is 0.687; in assay [1] (first compound 0.004048 µM) it was 0.563; in assay [1] (first compound 0.0128 µM), 0.452; in assay [1] (first compound 0.04048 µM), 0.141; in assay [1] (first compound 0.128 µM) it was 0.083; in assay [2] (first compound 0.00128 µM), 0.733. The relative viability in assay [2] (first compound 0.004048 µM) came out at 0.416; in assay [2] (first compound 0.0128 µM) it was 0.256; in assay [2] (first compound 0.04048 µM), 0.11; in assay [2] (first compound 0.128 µM), 0.0928; in assay [3] (first compound 0.00128 µM), 1.16; in assay [3] (first compound 0.004048 µM), 1.05. Moreover, the relative viability in assay [3] (first compound 0.0128 µM) was 0.858; in assay [3] (first compound 0.04048 µM) it was 0.549; in assay [3] (first compound 0.128 µM), 0.382; in assay [4] (first compound 0.00128 µM) it was 0.811; in assay [4] (first compound 0.004048 µM), 0.807; in assay [4] (first compound 0.0128 µM), 0.748. For the same cell line, the relative viability is 0.11 in assay [4] (first compound 0.04048 µM) and 0.0928 in assay [4] (first compound 0.128 µM).
